Measured values published in patent EP0280051A1, “ACV synthetase” (QUEEN'S UNIVERSITY AT KINGSTON, priority 1987, dated 1988).

Molecular target: ACV-synthetase of C. acremonium C-10 (Hapsidospora chrysogena, UniProt P25464)
Assay: Cell-free ACV synthetase reaction (desalted extract, HPLC analysis after monobromobimane derivatization)
Type: biochemical
Conditions: for inhibition of ACV-synthetase: qualitative, concentration not clearly stated for the inhibitors
Description: a Typical reaction mixtures contained desalted extract (about 0.5 mg protein), 20 µg cycloheximide, 10 mM ATP, 10 mM MgC12, 5 mM dithiothreitol, 5 mM L-α-aminoadipic acid, I mM L -cysteine and 5 mM L -valine, all components dissolved in 100 µl of 100 mM MOPS/KOH at pH 7.5. Reactions were performed at 25°C in a water bath shaker, and terminated by addition of 25 µl of 20% trichloroacetic acid. Precipitated protein was removed by centrifugation, and the supernatant stored at -20°C prior to analysis. (MOPS = 3-[N-Morpholino] propanesulfonic acid, - a biological buffer available from Sigma Chemical Co.
Mycelia from Example 1 were washed twice with cold 50 mM Tris/HC1 buffer (pH 7.2) containing 100 mM KC1. After centrifugation, the pellet was resuspended in a volume of cold 100 mM MOPS/KOH buffer (pH 7.2) equal to twice the pellet volume; the buffer also contained 50 mM KCI, 30 mM 2-mercaptoethanol, 20 mM EDTA and 50% glycerol (v/v). The cells were disrupted in a French Press (Aminco) at 8000 psi and the debris removed by centrifugation (30,000×g, 15 min). The clear yellow supernatant fluid was stored at -20°C or immediately desalted by passage through a Sephadex G-15 column using an elution buffer of 100 mM MOPSiKOH (pH 7.2) containing 50 mM KCI and 20% glycerol (v/v). The resulting solution contained 10 to 20 mg protein per ml and was either used immediately for the cell-free reaction or frozen for future use.
Stored frozen extract (from Example 2) was thawed, desalted over Sephadex eG-15, and eluted with 100 mM MOPS/KOH at pH 7.5. Typical reaction mixtures contained desalted extract (about 0.5 mg protein), 20 µg cycloheximide, 10 mM ATP, 10 mM MgCI2, 5 mM dithiothreitol, 5 mM L-α-aminoadipic acid, 1 mM L -cysteine and 5 mM L-valine, all components dissolved in 100 µl of 100 mM MOPS/KOH at pH 7.5. Reactions were performed at 25°C in a water bath shaker, and terminated by addition of 25 µl of 20% trichloroacetic acid. Precipitated protein was removed by centrifugation, and the supernatant stored at -20°C prior to analysis.
Analyses were performed following derivatization with monobromobimane: to a 20 I sample were added successively 2 µl of 3M KOH, 4 µl of 0.03M dithiothreitol in 2M NH4HCO3 (pH 8.2), and 4 µl of 0.3M monobromobimane in acetonitrile. This mixture was stored for 15 min. in the dark, and then extracted with methylene chloride (4 × 200 I). Five µl of 1 M citric acid (pH 2.2) was added, and 25 µl of this final solution was injected into the HPLC apparatus.
The HPLC analysis employed two solutions, viz., A, 880 mg for pentanesulfonic acid, 2.5 ml of acetic acid in I liter H20 (pH 3.6); B, 880 mg of pentanesulfonic acid, 2.5 ml acetic acid, 50 ml water and 950 ml acetonitrile. […]

ACV-synthetase of C. acremonium C-10, sequence (P25464 whole entry): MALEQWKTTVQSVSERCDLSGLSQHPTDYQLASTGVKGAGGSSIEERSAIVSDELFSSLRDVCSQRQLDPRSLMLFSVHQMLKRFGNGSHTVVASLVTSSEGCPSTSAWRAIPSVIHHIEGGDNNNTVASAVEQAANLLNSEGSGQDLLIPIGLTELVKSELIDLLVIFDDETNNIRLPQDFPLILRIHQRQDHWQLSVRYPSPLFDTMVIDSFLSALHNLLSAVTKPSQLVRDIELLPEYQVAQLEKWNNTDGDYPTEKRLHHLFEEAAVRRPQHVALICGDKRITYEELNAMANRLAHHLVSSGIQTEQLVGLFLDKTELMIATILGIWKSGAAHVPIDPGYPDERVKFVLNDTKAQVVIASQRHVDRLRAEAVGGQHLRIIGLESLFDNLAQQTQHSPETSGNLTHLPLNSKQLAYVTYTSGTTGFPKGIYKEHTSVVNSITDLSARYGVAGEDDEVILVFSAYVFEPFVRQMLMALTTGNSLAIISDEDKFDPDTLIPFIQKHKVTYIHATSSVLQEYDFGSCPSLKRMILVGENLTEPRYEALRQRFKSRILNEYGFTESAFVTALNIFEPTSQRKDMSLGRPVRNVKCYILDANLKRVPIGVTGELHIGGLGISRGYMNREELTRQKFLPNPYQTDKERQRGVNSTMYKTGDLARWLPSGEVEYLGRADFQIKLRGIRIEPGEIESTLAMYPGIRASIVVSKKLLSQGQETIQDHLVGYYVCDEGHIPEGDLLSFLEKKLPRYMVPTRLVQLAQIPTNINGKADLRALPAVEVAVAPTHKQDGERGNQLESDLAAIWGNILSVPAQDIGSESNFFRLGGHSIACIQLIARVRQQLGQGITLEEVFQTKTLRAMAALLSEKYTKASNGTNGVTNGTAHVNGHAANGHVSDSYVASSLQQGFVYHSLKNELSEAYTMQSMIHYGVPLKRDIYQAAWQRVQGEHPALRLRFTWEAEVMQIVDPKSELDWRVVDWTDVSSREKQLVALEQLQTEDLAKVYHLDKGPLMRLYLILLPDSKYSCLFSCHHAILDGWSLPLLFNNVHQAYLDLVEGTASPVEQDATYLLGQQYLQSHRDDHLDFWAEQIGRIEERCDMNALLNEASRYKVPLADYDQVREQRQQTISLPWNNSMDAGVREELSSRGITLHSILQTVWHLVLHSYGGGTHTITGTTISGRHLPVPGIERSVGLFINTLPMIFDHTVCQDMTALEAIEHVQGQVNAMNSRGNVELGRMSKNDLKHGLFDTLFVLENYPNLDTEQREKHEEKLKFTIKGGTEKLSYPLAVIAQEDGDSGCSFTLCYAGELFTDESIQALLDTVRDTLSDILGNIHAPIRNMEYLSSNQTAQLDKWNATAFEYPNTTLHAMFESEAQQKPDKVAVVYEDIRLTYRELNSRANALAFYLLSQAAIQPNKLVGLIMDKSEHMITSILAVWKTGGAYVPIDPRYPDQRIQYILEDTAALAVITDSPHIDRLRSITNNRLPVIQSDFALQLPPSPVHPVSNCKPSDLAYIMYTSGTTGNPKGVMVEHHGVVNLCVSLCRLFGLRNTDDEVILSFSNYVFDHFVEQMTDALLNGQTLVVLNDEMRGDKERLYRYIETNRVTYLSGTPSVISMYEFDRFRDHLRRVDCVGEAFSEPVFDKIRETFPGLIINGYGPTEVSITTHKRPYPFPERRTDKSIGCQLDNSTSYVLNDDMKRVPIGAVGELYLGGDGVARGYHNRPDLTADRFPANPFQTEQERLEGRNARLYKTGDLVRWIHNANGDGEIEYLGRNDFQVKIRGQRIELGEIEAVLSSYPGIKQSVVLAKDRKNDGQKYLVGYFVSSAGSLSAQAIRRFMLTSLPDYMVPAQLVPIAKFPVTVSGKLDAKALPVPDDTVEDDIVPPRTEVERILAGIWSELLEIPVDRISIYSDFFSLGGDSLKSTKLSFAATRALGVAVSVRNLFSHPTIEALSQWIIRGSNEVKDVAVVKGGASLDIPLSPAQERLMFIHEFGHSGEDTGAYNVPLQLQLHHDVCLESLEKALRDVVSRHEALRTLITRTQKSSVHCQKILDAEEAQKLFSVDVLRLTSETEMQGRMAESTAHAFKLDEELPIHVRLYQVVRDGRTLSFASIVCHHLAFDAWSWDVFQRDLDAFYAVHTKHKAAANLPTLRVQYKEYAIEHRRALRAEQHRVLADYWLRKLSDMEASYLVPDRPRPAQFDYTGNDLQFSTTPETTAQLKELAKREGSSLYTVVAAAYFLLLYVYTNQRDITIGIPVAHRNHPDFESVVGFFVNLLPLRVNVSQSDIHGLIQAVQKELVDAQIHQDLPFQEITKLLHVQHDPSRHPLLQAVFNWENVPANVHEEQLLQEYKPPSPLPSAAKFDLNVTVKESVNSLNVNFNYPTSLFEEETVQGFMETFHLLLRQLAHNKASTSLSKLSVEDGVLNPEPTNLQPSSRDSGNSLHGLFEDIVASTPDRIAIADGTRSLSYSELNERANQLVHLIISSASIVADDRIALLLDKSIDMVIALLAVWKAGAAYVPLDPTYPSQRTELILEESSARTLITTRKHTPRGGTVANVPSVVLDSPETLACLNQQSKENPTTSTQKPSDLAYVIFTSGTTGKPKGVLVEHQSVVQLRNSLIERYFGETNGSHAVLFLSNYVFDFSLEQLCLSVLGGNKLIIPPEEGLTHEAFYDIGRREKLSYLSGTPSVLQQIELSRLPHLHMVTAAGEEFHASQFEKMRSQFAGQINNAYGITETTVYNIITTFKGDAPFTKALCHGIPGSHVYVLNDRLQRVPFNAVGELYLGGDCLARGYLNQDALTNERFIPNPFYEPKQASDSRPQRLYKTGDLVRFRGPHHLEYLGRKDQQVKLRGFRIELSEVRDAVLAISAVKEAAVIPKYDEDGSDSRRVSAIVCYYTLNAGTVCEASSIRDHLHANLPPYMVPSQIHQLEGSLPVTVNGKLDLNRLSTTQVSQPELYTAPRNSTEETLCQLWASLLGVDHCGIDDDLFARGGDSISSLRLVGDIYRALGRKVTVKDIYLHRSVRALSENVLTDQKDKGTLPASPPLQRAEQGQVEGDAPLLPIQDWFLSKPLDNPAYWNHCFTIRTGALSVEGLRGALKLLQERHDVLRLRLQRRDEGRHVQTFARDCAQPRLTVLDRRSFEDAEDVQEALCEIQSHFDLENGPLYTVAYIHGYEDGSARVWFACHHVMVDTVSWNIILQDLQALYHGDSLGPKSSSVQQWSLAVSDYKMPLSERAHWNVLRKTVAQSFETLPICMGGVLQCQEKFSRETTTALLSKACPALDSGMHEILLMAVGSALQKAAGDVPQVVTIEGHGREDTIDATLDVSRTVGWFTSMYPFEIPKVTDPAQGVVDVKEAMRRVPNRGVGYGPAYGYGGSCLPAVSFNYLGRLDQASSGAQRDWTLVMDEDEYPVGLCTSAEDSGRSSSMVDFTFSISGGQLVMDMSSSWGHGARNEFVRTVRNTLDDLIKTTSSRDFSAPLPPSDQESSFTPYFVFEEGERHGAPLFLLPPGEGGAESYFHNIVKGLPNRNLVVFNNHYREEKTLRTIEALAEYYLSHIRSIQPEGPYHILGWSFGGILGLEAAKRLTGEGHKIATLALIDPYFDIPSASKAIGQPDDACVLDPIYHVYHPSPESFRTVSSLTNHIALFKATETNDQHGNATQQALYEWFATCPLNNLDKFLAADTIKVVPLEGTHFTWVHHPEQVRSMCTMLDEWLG

| Compound | inhibition of ACV-synthetase | effect on LLD-ACV synthesis (added as a fourth amino acid, concentration not given) |
| --- | --- | --- |
| glucose-1-phosphate | inhibit | – |
| orthophosphate | inhibit | – |
| NCC(=O)O [glycine] | – | unaffected |
| Fructose-1.6-diphosphate | inhibit | – |
